Structures can show the parent of a compound that is named as a salt.
Experiments:
aldose reductase = target: T1, aldose reductase (Bos taurus, UniProt P16116); assay: Inhibition of aldose reductase in vitro (reduction of glyceraldehyde to glycerol, spectrophotometric NADPH determination); format: biochemical; conditions: enzyme from beef crystalline lens; substrate glyceraldehyde; read-out: log 1/CI50 (CI50 = concentration in mole/l resulting in 50% inhibition of the enzymatic activity) (converted)
T1 construct: The enzyme is extracted from beef crystalline lens; from tissue; host or cells: beef crystalline lens
Experimental: The enzyme is extracted from beef crystalline lens by the method described by Hayman S. and Kinoshita J. H. (J. Biol Chem., 1965, 240, 2,877). The percentage of inhibition of the capacity of the enzyme to reduce glyceraldehyde to glycerol under the effect of the product to be tested is determined by the spectrophotometric determination of the amount of NADPH reacting according to the method described by Hayman and Kinoshita. We give below in parentheses after each product the value of the log 1/CI50 where CI50 represents the concentration expressed in mole/l resulting in 50% inhibition of the enzymatic activity: COR 19 85 (4.9); COR 19 91 (5.5); COR 19 93 (5.1); COR 19 94 (5.2); COR 19 99 (5.4); COR 35 01 (6.9); COR 35 02 (5.15); COR 35 07 (6.3); COR 35 09 (5.7); COR 35 11 (5.9); COR 35 19 (5.8); COR 35 22 (5.2).

rats [1] = assay: Galactose cataracts: degree of cataract marked 0 to 3 by ophthalmoscope; format: in vivo; conditions: 20% galactose diet, 100 mg/kg d
Experimental: Rats, 14 days old, were kept in a cage of 11 with a mother for 3 days. From the 4th to the 9th day, the animals received the product to be tested or the reference product. At the end of pretreatment, the mothers were removed. Two out of the 11 animals were eliminated to obtain batches of homogenous weight. The selected rats were divided 3 by 3 into cages at random, and the diet containing 20% galactose was put in place. […] The degree of cataract was evaluated by a marking system from 0 to 3.
The marks given to the treated animals were compared with those of the control animals by the Mann and Whitney U test (D. Schwartz, "Statistical Methods for the Use of Physicians and Biologists," Ed. Flammarion, Paris, 1963).

mice = assay: Toxicity in mice; format: in vivo; conditions: for LD0: orally
rats [2] = assay: Neuropathy with streptozotocin: sorbitol and inositol levels in sciatic nerves, glycemia; format: in vivo; conditions: 100 mg/kg/d
Experimental: Four batches of 10 rats weighing about 200 g were treated from D-2 to D+3 with a gummy julep of the product to be tested. On D O the animals received an i.p. injection of 100 mg/kg of streptozotocin dissolved in a citrate buffer. The glycemia of the rats was determined 24 hours and 3 days after injection of the streptozotocin and the sciatic nerves were removed to determine the sorbitol and inositol levels. […] COR 35 01 had no effect on the glycemia of the animals.

Toxicity in mice = format: in vivo; conditions: mouse, in vivo
rats [3] = assay: Diuretic activity, method of Lipschitz et coll.; format: in vivo; conditions: oral administration of 20 mg/kg
Experimental: Besides their advantage in curative and preventive therapy of complications from diabetes, the products, which are the object of this invention, are also useful as diuretics. Thus, product COR35 07, tested in rats according to the method of Lipschitz et coll.(J. Pharm. Exp. Therap., 1943, 79, 97-110), results in an increase in urinary excretion of sodium (natruria was multiplied by 2.6 after oral administration of 20 mg/kg).

With `CCCc1c(-c2ccc(C(=O)O)cc2)oc2cc(S(=O)(=O)N(C)CCO)ccc2c1=O` [COR 35 19, 7-(N-hydroxyethyl N-methylsulfamoyl)-3-propyl-4'-flavonecarboxylic acid] the IC50 (aldose reductase) was 1.58 µM.
With `CCCc1c(-c2ccc(C(=O)O)cc2)oc2cc(S(=O)(=O)N(C)C)ccc2c1=O` [COR 35 09, N,N-7-dimethylsulfamoyl-3-propyl-4'-flavonecarboxylic acid] the IC50 (aldose reductase) was 2 µM, the “galactose cataract average index D + 1” value (rats [1]; D+1, marks 0 to 3) was 0.0 and the “galactose cataract average index D + 2” value (rats [1]; D+2, marks 0 to 3) was 0.0. For the same molecule, the “galactose cataract average index D + 3” value (rats [1]; D+3, marks 0 to 3) was 0.031, the “galactose cataract average index D + 4” value (rats [1]; D+4, marks 0 to 3, S) was 0.47 and the “galactose cataract average index D + 5” value (rats [1]; D+5, marks 0 to 3, S) was 0.97. For the same molecule, the “galactose cataract average index D + 6” value (rats [1]; D+6, marks 0 to 3, S) was 1.44, the “galactose cataract average index D + 7” value (rats [1]; D+7, marks 0 to 3, S) was 1.69 and the “galactose cataract average index D + 8” value (rats [1]; D+8, marks 0 to 3, S) was 1.81. The “galactose cataract average index D + 9” value (rats [1]; D+9, marks 0 to 3, S) was 2.06, the “galactose cataract average index D + 10” value (rats [1]; D+10, marks 0 to 3, S) was 1.88 and the “galactose cataract average index D + 11” value (rats [1]; D+11, marks 0 to 3, S) was 1.69. The “galactose cataract average index D + 12” value (rats [1]; D+12, marks 0 to 3, S) was 1.81 and the “galactose cataract average index D + 13” value (rats [1]; D+13, marks 0 to 3, S) was 1.50.
`CCCc1c(-c2ccc(C(=O)O)cc2)oc2cc(NC(=O)CN3CCOCC3)ccc2c1=O` [COR 35 02, 7-morpholinoacetamido-3-propyl-4'-flavonecarboxylic acid hydrochloride] gave an IC50 (aldose reductase) of 7.08 µM.
In the case of `CCCc1c(-c2ccc(C(=O)O)cc2)oc2cc(NC(C)=O)ccc2c1=O` [COR 19 91, 7-acetamido-3-propyl-4'-flavonecarboxylic acid], the IC50 (aldose reductase) is reported as 3.16 µM and the LD0 (mice) is reported as “more than 2000 mg/kg”.
For `CCCc1c(-c2ccc(C(=O)O)cc2)oc2cc(NS(C)(=O)=O)ccc2c1=O` [COR 35 01, 7-methanesulfonamido-3-propyl-4'-flavonecarboxylic acid], the “sorbitol level in the sciatic nerves” value (rats [2]; D-2 to D+3, control 0.983±0.334) was 0.426 ± 0.171 mg/kg, the “inositol level in the sciatic nerves” value (rats [2]; D-2 to D+3, control 1.6555±0.372) was 1.184 ± 0.340 mg/kg and the IC50 (aldose reductase) was 0.126 µM. For the same molecule, the mortality (Toxicity in mice; ip, intraperitoneally, 500 mg/kg) was 20%, the mortality (mice; intraperitoneally, 250 mg/kg) was “did not cause any mortality” and the LD0 (mice) was “more than 2000 mg/kg”.
Molecule `CCCc1c(-c2ccc(C(=O)O)cc2)oc2cc(S(=O)(=O)NC)ccc2c1=O` [COR 35 11, N-7-methylsulfamoyl-3-propyl-4'-flavonecarboxylic acid] has an IC50 (aldose reductase) of 1.26 µM.
Work on `CCc1c(-c2ccc(C(=O)O)cc2)oc2cc(NC(C)=O)ccc2c1=O` [COR 19 93, 7-acetamido-3-ethyl-4'-flavonecarboxylic acid] yielded an IC50 (aldose reductase) of 7.94 µM.
For `CCCc1c(-c2ccc(C(=O)OC)cc2)oc2cc(NS(C)(=O)=O)ccc2c1=O` [COR 19 99, methyl 7-methanesulfonamido-3-propyl-4'-flavonecarboxylate], the IC50 (aldose reductase) was 3.98 µM.
For `COC(=O)c1ccc(-c2oc3cc(NS(C)(=O)=O)ccc3c(=O)c2OS(C)(=O)=O)cc1` [COR 35 07, methyl 7-methanesulfonamido-3-methanesulfonyloxy-4'-flavonecarboxylate], the IC50 (aldose reductase) was 0.501 µM and the “natruria multiplied by (increase in urinary excretion of sodium)” value (rats [3]) was 2.6.
With `CC(=O)Nc1ccc2c(=O)c(OC(C)=O)c(-c3ccc(C(=O)O)cc3)oc2c1` [COR 19 94, 7-Acetamido-3-acetoxy-4'-flavonecarboxylic acid] the IC50 (aldose reductase) was 6.31 µM and the LD0 (mice) was “more than 2000 mg/kg”.
In the case of `CCCc1c(-c2ccc(C(=O)O)cc2)oc2cc(S(N)(=O)=O)ccc2c1=O` [COR 35 22, 7-sulfamoyl-3-propyl-4'-flavonecarboxylic acid], the IC50 (aldose reductase) is reported as 6.31 µM.
For `CC(=O)Nc1ccc2c(=O)cc(-c3ccc(C(=O)O)cc3)oc2c1` [COR 19 85, 7-acetamido-4'-flavonecarboxylic acid], the IC50 (aldose reductase) was 12.6 µM.
For `CCCc1c(-c2ccc(C(=O)OC)cc2)oc2cc(NC(=O)CN3CCOCC3)ccc2c1=O` [COR35 17, methyl 7-(morpholinoacetamido)-3-propyl-4'-flavonecarboxylate], the mortality (Toxicity in mice; oral administration of 1000 mg/kg) was 10%.

From patent publication US4600788A, “4'-flavonecarboxylic acids and pharmaceutically acceptable derivatives their preparation, and their application” (Societe Cortial, S.A., priority 1983, dated 1986)
